ChEMBL document CHEMBL1125398, “Antiestrogens. 3. Estrogen receptor affinities and antiproliferative effects in MCF-7 cells of phenolic analogues of trioxifene, [3,4-dihydro-2-(4- methoxyphenyl)-1-naphthalenyl][4-[2-(1-pyrrolidinyl)ethoxy]- phenyl]methanone” (J Med Chem, 1992)

How the values were obtained:
[1] = molecular target: Estrogen receptor (Homo sapiens, UniProt Q92731+P03372); conditions: mcf7
Description: Displacement of [3H]estradiol from Estrogen receptor in MCF-7 cells

[2] = species: Homo sapiens; assay: Inhibition of Calmodulin activation of cyclic nucleotide phosphodiesterase; type: functional; conditions: concentration not given here

| SMILES | IC50 [1] [µM] | inhibition [2] [%] |
| --- | --- | --- |
| O=C(C1=C(c2ccc(O)cc2)CCc2cc(O)ccc21)c1ccc(OCCN2CCCCC2)cc1 | 0.073 | 2 |
| CC/C(=C(\c1ccccc1)c1ccc(OCCN(C)C)cc1)c1ccccc1 | – | 44 |
| Oc1ccc2c3c(ccc2c1)-c1ccccc1C3c1ccc(OCCN2CCCCC2)cc1 (configuration not stated) | 0.74 | 22 |
| O=C(C1=C(c2ccccc2)CCc2cc(O)ccc21)c1ccc(OCCN2CCCCC2)cc1 | 1.65 | 6 |
| O=C(c1ccc(OCCN2CCCCC2)cc1)c1c(-c2ccc(O)cc2)sc2cc(O)ccc12 | – | 6 |
| O=C(c1ccc(OCCN2CCCC2)cc1)c1c(-c2ccc(O)cc2)sc2cc(O)ccc12 [LY-117018] | 0.12 | 3 |
| Oc1ccc2c(c1)C(c1ccc(OCCN3CCCCC3)cc1)c1c-2ccc2cc(O)ccc12 (configuration not stated) | 0.125 | 18 |
